# Assay results taken from patent publication US20020058072A1, “Use of iodide salt as an aphrodisiac” (priority 2000, published 2002).
# Tested on: human
# Assay: Oral administration to an adult human: aphrodisiac effect and increased vaginal lubrication
# Format: in vivo
# Details: 3 ml of 5M sodium iodide in water added to 20 ml lemon juice plus 1 tbsp sugar; patient
# Source text: The terms “aphrodisiac” or “heightened sexual desire”, for the purposes of the present invention, refer to the following physical manifestations including clitoral swelling, nipple erection, contraction of the vaginal musculature, and a general tingling sensation.
# Specifically, after oral administration of an iodide salt, the subject experienced increased vaginal lubrication. The term “increased vaginal lubrication”, as used herein, refers to an increased amount of transudate present in the vagina above the amount of transudate present in the vagina above the amount of transudate present in the unstimulated state.
# The syrup was administered orally to a human, weighing approximately 165 pounds. About 0.5 to 3.0 teaspoons of the hydriodic acid syrup was admixed with approximately 8 ounces of tap water and then ingested.
# To 20 ml of lemon juice are added 3 ml of a 5M solution of sodium iodide in water, and 1 tbsp of sugar is added to the resultant solution.
structure (smiles),measurement,value
[I-].[Na+] [sodium iodide],"reaction observed after administration (arousal, vaginal lubrication)",arousal and increased vaginal lubrication
